Test results: US4550170A, “6-Phenyl-2,3,5,6-tetrahydroimidazo-[2,1-b]-thiazole derivatives” (Institut Organicheskoi Khimii Akademii Nauk Ukrainskoi SSR, priority 1984, dated 1985)
Read-outs that look alike come from different tables or passages of the source.

Experiments:
[1] = test system: allergic reaction of the delayed type in mice; test: delayed-type (contact) hypersensitivity reaction to dinitrochlorobenzene, ear thickness in mice; format: in vivo, CBA mice; settings: for Ear thickness, Control, Average value / Ear thickness, Control, Range of fluctuations: control (right) ear; for Ear thickness, Experiment, Average value / Ear thickness, Experiment, Range of fluctuations: test (left) ear; for dose sufficient for inhibition of the contact hypersensitivity, lower than that of levamizole: ratio to levamizole
[2] = test system: IgE antibodies in respiratory organs
Description: The local production of IgE-antibodies in trachea and lungs of rats of the lines WAY, August with a mass of 250-300 g was induced by means of a successive (with the interval of 40 minutes) dropping a 0.1% solution of histamine and ambrosia allergen (10,000 PNU/ml) into both nasal passages. […] One day after the administration of the allergen IgE-antibodies were determined in homogenates of trachea and lungs prepared at the rate of 0.1 ml of a physiological solution per 10 mg of the tissue by the method of indirect degranulation of obese cells.

[3] = test system: virus of vesicular stomatitis; format: cell-based
[4] = test system: delayed-type hypersensitivity reaction; test: delayed-type hypersensitivity reaction to 2,4-dinitrochlorobenzene in guinea pigs; format: in vivo
[5] = physical properties of the compounds; format: physicochemical
[6] = in vivo; settings: mouse, sc
[7] = test system: delayed-type hypersensitivity reaction; test: delayed-type hypersensitivity reaction to rat's thymocytes in mice (popliteal lymph nodes); format: in vivo
[8] = test system: human tonsillocytes; test: natural cytotoxicity (natural killers) of human tonsillocytes, 51Cr release; format: cell-based; settings: for Yield of 51Cr from target cells, natural cytotoxicity, average value: (III) significant P below 0.05
From the text: (§1) The cytolytic effect of tonsillocytes was studied by the radioisotope method using Cr^51. On doing so, the deterioration of target cells (chicken's erythrocytes) by tonsil lymphocytes was regarded as spontaneous cytolysis, while the destruction of the target cells loaded, in addition to the isotopic tracer, with homologous antibodies in the sublytic dose was considered as antibody-dependent cytolysis. […] Afterwards they were twice washed by means of Medium 199 using centrifugation (105 g, 10 minutes). […] The degree of destruction of the target cells was determined radiometrically by the outcome of Cr^51 into the liquid phase.

[9] = in vivo; settings: rat, rats
[10] = in vivo; settings: rabbit
[11] = test system: human tonsillocytes; test: antibody-dependent cytotoxicity of human tonsillocytes, 51Cr release; format: cell-based
From the text: as §1, with “On this basis, the effect of one of the lest toxic compound (III) out of those of the present invention was studied for the antibody-dependent cytolytic activity of cells. […] The cytolytic” for “The cytolytic”

[12] = test system: Staphylococcus aureus, Proteum, Bacillus pyocyanes; test: antibacterial activity in vitro, serial dilutions; format: cell-based; settings: relative to compound (II)
Description: In the experiments in vitro the antibacterial activity of the compounds of the present invention was studied. To this end, serial dilutions of compounds (II) and (III) with a concentration of from 1% to 0.00001% were prepared and 0.1 ml of a microbal suspension was added thereto (Staphylococcus aureus, Proteum, Bacillus pyocyanes). The microbal load for staphylococcus was about 1×10^5 cells/ml, for Proteum and Bacillus pyocyanes -1×10^4 c cells/ml. […] The bacteria were incubated along with the compounds according to the present invention at the temperature of 37° C. […] Inoculations were effected by spreading 0.1 ml of a suspension of bacteria in a corresponding dilution of the compounds over the surface of an agar dish using a glass spatula.

[13] = 100 μg/ml, certainty: (II), (III) below 0.05, (I), levamizole above 0.05
[14] = 500 μg/ml, certainty: all below 0.05
[15] = 100 μg/ml, negative = test value exceeded the control

## CCCCCCCCCCOC(=O)C[N+]1=C2SCCN2CC1c1ccccc1 (stereo not drawn) [Compound (II), 2,3,5,6-tetrahydro-6-phenyl-7-decyloxycarbonylmethylimidazo-[2,1-b]-thiazolium bromide]
[1]; 2.5 mg/kg per os
  Ear thickness, Control, Average value: 202.2 μm
  Ear thickness, Control, Range of fluctuations: 150-250 μm
  Ear thickness, Experiment, Average value: 222.8 μm
  Ear thickness, Experiment, Range of fluctuations: 175-300 μm
[1]; 25 mg/kg per os
  Ear thickness, Control, Average value: 178.9 μm
  Ear thickness, Control, Range of fluctuations: 150-240 μm
  Ear thickness, Experiment, Average value: 184.4 μm
  Ear thickness, Experiment, Range of fluctuations: 170-240 μm
[1]
  dose sufficient for inhibition of the contact hypersensitivity, lower than that of levamizole: 10 times
[2]; [13]
  Percent of degranulated mastocytes, Lungs: 6.8 ± 0.9%
  Percent of degranulated mastocytes, Trachea: 15.0 ± 1.8%
[2]; [14]
  Percent of degranulated mastocytes, Lungs: 6.5 ± 0.9%
  Percent of degranulated mastocytes, Trachea: 3.5 ± 1.2%
[3]; 1 μg/ml
  Degree of inhibition of the virus reproduction: 10 times
[3]; 10 μg/ml
  Degree of inhibition of the virus reproduction: 100 times
[4]; 1,000 μg/ml
  Difference in temperature of the pad surfaces, Average value: +1.2 ± 0.16 °C
  Difference in thickness of control and test talipes, Average value: +0.63 ± 0.09 mm
[5]
  solubility in lower alcohols: soluble
  solubility in water: soluble
[6]
  LD50: 167 mg/kg
[7]; 1,000 μg/ml
  Difference in masses of popliteal lymph nodes in the control and test limb, Average value: +1.3 ± 0.29 mg

## COC(=O)C[N+]1=C2SCCN2CC1c1ccccc1 (stereo not drawn) [Compound (I), 2,3,5,6-tetrahydro-6-phenyl-7-methoxycarbonylmethylimidazo-[2,1-b]-thiazolium bromide]
[2]; [13]
  Percent of degranulated mastocytes, Lungs: 19.4 ± 1.8%
  Percent of degranulated mastocytes, Trachea: 17.8 ± 1.3%
[2]; [14]
  Percent of degranulated mastocytes, Lungs: 9.3 ± 0.8%
  Percent of degranulated mastocytes, Trachea: 7.0 ± 0.2%
[4]; [15]
  Difference in temperature of the pad surfaces, Average value: -1.5 ± 0.27 °C
  Difference in thickness of control and test talipes, Average value: -0.6 ± 0.062 mm
[5]
  solubility in acetone: sparingly soluble
  solubility in benzene: sparingly soluble
  solubility in lower alcohols: soluble
  solubility in water: soluble
[6]
  LD50: 262 mg/kg
[7]; [15]
  Difference in masses of popliteal lymph nodes in the control and test limb, Average value: -1.1 ± 0.08 mg
[7]; 500 μg/ml
  Difference in masses of popliteal lymph nodes in the control and test limb, Average value: +1.3 ± 0.2 mg

## NC(=O)C[N+]1=C2SCCN2CC1c1ccccc1 (stereo not drawn) [Compound (III), 2,3,5,6-tetrahydro-6-phenyl-7-carbamoylmethylimidazo-[2,1-b]-thiazolium bromide]
[8]; 1 μg/ml
  Yield of 51Cr from target cells, natural cytotoxicity, range of fluctuations: 7.0-60.0%
  Yield of 51Cr from target cells, natural cytotoxicity, average value: 30.6%
[8]; 10 μg/ml
  Yield of 51Cr from target cells, natural cytotoxicity, range of fluctuations: 7.0-42.0%
  Yield of 51Cr from target cells, natural cytotoxicity, average value: 28.8%
[8]; 100 μg/ml
  Yield of 51Cr from target cells, natural cytotoxicity, range of fluctuations: 1.0-40.0%
  Yield of 51Cr from target cells, natural cytotoxicity, average value: 24.8%
[9]; po, LD50 upon peroral administration, female
  LD50: 3500 mg/kg
[9]; po, LD50 upon peroral administration, male
  LD50: 5750 mg/kg
[9]; sc, LD50 upon subcutaneous injection, female
  LD50: 1420 mg/kg
[9]; sc, LD50 upon subcutaneous injection, male
  LD50: 2580 mg/kg
[1]; 2.5 mg/kg per os
  Ear thickness, Control, Average value: 176.7 μm
  Ear thickness, Control, Range of fluctuations: 110-210 μm
  Ear thickness, Experiment, Average value: 184.4 μm
  Ear thickness, Experiment, Range of fluctuations: 110-220 μm
[1]; 25 mg/kg per os
  Ear thickness, Control, Average value: 184.4 μm
  Ear thickness, Control, Range of fluctuations: 170-200 μm
  Ear thickness, Experiment, Average value: 190.0 μm
  Ear thickness, Experiment, Range of fluctuations: 170-200 μm
[1]
  dose sufficient for inhibition of the contact hypersensitivity, lower than that of levamizole: 10 times
[2]; [13]
  Percent of degranulated mastocytes, Lungs: 10.6 ± 3.9%
  Percent of degranulated mastocytes, Trachea: 9.1 ± 2.1%
[2]; [14]
  Percent of degranulated mastocytes, Lungs: 6.1 ± 1.1%
  Percent of degranulated mastocytes, Trachea: 7.1 ± 1.7%
[3]; 1 μg/ml
  Degree of inhibition of the virus reproduction: 10 times
[3]; 10 μg/ml
  Degree of inhibition of the virus reproduction: 100 times
[10]; po
  LD50: 3330 mg/kg
[10]; sc
  LD50: 317 mg/kg
[5]
  solubility in acetone: only slightly soluble
  solubility in benzene: only slightly soluble
  solubility in lower alcohols: well soluble
  solubility in water: well soluble
[11]; 1 μg/ml
  Yield of 51Cr from target cells, antibody dependent cytotoxicity, range of fluctuations: 10.0-57.0%
[11]; 1 μg/ml, (III) significant P below 0.05
  Yield of 51Cr from target cells, antibody dependent cytotoxicity, average: 23.2%
[11]; 10 μg/ml
  Yield of 51Cr from target cells, antibody dependent cytotoxicity, range of fluctuations: 13.0-36.0%
[11]; 10 μg/ml, (III) significant P below 0.05
  Yield of 51Cr from target cells, antibody dependent cytotoxicity, average: 22.6%
[11]; 100 μg/ml
  Yield of 51Cr from target cells, antibody dependent cytotoxicity, range of fluctuations: 4.0-40.0%
[11]; 100 μg/ml, levamizole significant P below 0.05
  Yield of 51Cr from target cells, antibody dependent cytotoxicity, average: 19.1%
[11]; Homo sapiens, read-out: concentration stimulating the antibody-dependent cytolytic activity
  minimal effective concentration: 1 to 10 µg/mL
[11]; ratio to levamizole
  stimulating concentration lower as compared to levamizole, antibody-dependent cytolytic activity: 10-100 times
[12]
  antibacterial activity lower by a factor of: 2
[6]
  LD50: 1020 mg/kg
